Assay [1] deals with EGFR^Del19/T790M/C797S (Homo sapiens, UniProt P00533, C797S/DEL746-750/T790M). Description: EGFR inhibitory activity assay (TK-substrate-biotin/ATP, 665/615 ratio). As to conditions: kinase inhibition. It counts as biochemical. As to the method: EGFR Inhibitory Activity Assay
(2) The plate was sealed, and centrifuged at 1,000 g for 1 min;
(4) 5 μl of the 2×EGFR protein working solution was added to the 384-well plate from step (2), centrifuged at 1,000 g for 30 s, and allowed to stand at room temperature (mixed thoroughly) for 10 min;
(6) 5 µL of the TK-substrate-biotin and ATP (the mixture prepared in step (5)) was added to the 384-well plate from step (4) to initiate the reaction;
(7) The mixture was centrifuged at 1,000 g for 30 s; the plate was sealed, and allowed to stand (and reacted) at room temperature for 40 min;
(10) The mixture was centrifuged at 1,000 g for 30 s, and allowed to stand (reacted) at room temperature for 1 h;
(§1) Formula of inhibition rate (%): […]
(§2) The nonlinear regression curve (dose response-variable slope) between the value of inhibition rate (%) and the logarithm of compound concentration was fitted with graphpad prism 8.0, the effect dose curve of compound was drawn, and the IC50 value was calculated.

Assay [2] has as its target EGFR^L858R/T790M/C797S (Homo sapiens, UniProt P00533, C797S/L858R/T790M). Described as above. It counts as biochemical. As to conditions: kinase inhibition. The procedure, abridged:
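HTRF kinase assay: enzyme preincubated with compound 10 min at room temperature, then reacted with biotinylated TK substrate and ATP for 40 min at room temperature.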

In assay [3] the target is ALK (Homo sapiens, UniProt Q9UM73). Description: Assay of activity on ALK kinase. Conditions: kinase inhibition. Format: biochemical. The method, then: (§3) Assay of activity on ALK kinase
Sequence of ALK (Q9UM73 19-1620): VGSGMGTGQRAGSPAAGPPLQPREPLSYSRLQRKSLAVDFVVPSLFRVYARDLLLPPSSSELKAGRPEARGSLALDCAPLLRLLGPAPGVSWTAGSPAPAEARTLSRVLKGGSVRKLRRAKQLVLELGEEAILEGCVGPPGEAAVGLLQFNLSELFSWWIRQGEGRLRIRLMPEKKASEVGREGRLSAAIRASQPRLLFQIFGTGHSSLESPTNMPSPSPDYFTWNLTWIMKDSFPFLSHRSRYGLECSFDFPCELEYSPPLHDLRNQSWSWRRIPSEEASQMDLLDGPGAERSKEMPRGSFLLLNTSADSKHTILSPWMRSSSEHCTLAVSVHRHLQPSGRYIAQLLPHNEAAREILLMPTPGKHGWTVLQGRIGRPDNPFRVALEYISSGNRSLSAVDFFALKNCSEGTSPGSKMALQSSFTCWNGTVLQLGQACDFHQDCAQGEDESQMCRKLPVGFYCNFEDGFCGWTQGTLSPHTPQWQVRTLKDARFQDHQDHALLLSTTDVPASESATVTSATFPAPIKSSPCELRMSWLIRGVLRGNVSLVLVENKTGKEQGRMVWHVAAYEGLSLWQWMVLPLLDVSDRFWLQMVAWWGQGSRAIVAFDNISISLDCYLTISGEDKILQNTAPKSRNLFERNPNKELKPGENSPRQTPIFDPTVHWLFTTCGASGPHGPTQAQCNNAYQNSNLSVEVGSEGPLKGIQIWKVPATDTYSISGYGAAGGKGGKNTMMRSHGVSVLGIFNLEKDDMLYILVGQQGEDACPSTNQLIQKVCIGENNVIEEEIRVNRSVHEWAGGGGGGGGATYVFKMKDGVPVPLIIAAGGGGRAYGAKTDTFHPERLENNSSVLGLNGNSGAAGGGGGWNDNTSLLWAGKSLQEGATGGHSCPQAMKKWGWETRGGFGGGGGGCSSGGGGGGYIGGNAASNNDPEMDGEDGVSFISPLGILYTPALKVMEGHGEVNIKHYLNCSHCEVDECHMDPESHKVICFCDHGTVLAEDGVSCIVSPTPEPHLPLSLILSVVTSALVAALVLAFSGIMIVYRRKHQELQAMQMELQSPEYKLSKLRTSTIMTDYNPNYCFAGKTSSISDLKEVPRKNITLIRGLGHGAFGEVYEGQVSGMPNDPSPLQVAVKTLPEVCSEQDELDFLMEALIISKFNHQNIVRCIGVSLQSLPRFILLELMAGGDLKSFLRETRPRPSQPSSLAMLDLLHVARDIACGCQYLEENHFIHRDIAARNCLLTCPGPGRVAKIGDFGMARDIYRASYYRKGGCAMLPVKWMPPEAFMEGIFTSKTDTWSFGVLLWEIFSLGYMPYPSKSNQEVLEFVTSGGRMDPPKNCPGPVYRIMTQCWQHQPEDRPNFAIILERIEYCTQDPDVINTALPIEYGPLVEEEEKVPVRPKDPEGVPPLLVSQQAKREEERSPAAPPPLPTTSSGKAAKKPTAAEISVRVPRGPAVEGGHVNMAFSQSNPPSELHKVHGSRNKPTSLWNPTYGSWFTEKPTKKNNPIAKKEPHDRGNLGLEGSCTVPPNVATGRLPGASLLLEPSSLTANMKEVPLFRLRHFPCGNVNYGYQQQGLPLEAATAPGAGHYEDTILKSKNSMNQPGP
(§4) (1) A compound stock solution was prepared;
(§5) (2) The compound stock solution was diluted 3× to obtain a compound dilution;
(§6) (5) 5 μl of the 2× kinase working solution was added to the reaction plate, centrifuged at 1,000 rpm for 1 min, and incubated at 25° C. for 15 min;
(§7) (7) 5 μl of the TK-substrate-biotin and ATP (the mixture prepared in step (6)) was added to initiate the reaction;
(§8) (8) The mixture was centrifuged at 1,000 g for 30 s; the plate was sealed, and incubated at 25° C. for 60 min;
(§9) (11) The mixture was centrifuged at 1,000 g for 1 min, and incubated at 25° C. for 60 min;
as §1, §2
(§10) Y=Bottom+(Top−Bottom)/(1+10^((LogIC50−X)*Hill Slope))
(§11) X-axis: logarithm of compound concentration; Y axis: inhibition rate ([…])

Assay [4] addresses Ba/F3(EGFR^L858R/T790M/C797S) cells (Homo sapiens, UniProt P00533, T790M/C797S/L858R, cells depend on it). The assay is described as follows: Assay of activity on Ba/F3 cells (CTG, 72 h). It counts as cell-based. As to conditions: read-out: IC50 (nM) Ba/F3 (EGFR^L858R/T790M/C797S). The gist of the method: (§12)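 Ba/F3 cells dependent on each EGFR triple mutant were exposed to 3-fold compound dilutions for 72 h at 37° C, 5% CO2, with CellTiter-Glo luminescence as the read-out.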

Assay [5] deals with T1, Ba/F3(EML4-ALK) cells (Homo sapiens, UniProt Q9UM73).
T1 construct: fused on or other part: Q9HC35 (Echinoderm microtubule-associated protein-like 4)
The assay is described as follows: Assay of activity on Ba/F3(EML4-ALK) cells (CTG, 72 h). Format: cell-based. Conditions: read-out: IC50 (nM) Ba/F3(EML4-ALK). The procedure, abridged: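 Ba/F3(EML4-ALK) cells, 700 per well, were exposed to 3-fold serial compound dilutions for 72 h at 37° C, 5% CO2, and viability was then read by CTG luminescence.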

Assay [6] deals with ALK^G1202R (Homo sapiens, UniProt Q9UM73, G1202R). Description: Assay of activity on ALK kinase. Format: biochemical. As to conditions: kinase inhibition. As to the method: as §3, §4, §5, §6, §7, §8, §9, §1, §2, §10, §11
Sequence of ALK^G1202R (Q9UM73 19-1620 G1202R): as the sequence (Q9UM73 19-1620) above, with G1184R counted along it
The target in assay [7] is Ba/F3(EGFR^Del19/T790M/C797S) cells (Homo sapiens, UniProt P00533, DEL746-750/T790M/C797S, cells depend on it). The assay is described as follows: Assay of activity on Ba/F3 cells (CTG, 72 h). It counts as cell-based. As to conditions: read-out: IC50 (nM) Ba/F3 (EGFR^Del19/T790M/C797S). The gist of the method: as §12

The structures appear in SMILES notation.

Sequence of EGFR^L858R/T790M/C797S (P00533 25-1210 T790M/C797S/L858R): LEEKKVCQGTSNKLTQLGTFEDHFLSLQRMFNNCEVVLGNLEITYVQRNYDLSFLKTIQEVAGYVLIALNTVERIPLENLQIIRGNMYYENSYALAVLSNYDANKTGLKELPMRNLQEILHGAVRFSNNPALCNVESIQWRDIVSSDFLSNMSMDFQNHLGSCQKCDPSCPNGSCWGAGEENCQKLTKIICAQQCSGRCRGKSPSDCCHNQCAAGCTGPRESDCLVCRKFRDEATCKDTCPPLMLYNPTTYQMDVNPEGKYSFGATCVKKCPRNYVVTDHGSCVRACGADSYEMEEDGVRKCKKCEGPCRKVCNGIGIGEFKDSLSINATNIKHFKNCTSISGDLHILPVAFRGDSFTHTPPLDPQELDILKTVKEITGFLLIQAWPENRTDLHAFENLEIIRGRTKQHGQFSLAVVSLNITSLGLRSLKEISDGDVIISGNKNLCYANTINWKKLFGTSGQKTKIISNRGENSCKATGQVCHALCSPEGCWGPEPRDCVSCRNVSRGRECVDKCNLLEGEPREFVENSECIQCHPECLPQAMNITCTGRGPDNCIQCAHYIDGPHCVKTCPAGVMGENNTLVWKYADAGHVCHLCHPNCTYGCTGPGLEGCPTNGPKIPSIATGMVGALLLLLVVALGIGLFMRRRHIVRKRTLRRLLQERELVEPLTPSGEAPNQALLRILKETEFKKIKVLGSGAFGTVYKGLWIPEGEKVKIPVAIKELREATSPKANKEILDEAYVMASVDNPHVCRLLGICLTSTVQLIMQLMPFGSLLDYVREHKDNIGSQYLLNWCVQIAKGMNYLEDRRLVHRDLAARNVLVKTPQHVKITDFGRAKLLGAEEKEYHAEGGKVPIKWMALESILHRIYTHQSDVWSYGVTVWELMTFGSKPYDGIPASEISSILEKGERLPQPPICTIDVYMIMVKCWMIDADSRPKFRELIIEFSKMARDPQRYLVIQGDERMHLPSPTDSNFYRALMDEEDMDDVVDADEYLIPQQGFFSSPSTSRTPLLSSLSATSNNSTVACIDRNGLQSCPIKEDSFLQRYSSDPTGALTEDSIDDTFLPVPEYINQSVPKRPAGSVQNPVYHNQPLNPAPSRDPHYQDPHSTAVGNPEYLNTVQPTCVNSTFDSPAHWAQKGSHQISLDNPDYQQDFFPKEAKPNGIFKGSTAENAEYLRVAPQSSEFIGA
Sequence of EGFR^Del19/T790M/C797S (P00533 with tags, fused parts or gaps DEL746-750/T790M/C797S): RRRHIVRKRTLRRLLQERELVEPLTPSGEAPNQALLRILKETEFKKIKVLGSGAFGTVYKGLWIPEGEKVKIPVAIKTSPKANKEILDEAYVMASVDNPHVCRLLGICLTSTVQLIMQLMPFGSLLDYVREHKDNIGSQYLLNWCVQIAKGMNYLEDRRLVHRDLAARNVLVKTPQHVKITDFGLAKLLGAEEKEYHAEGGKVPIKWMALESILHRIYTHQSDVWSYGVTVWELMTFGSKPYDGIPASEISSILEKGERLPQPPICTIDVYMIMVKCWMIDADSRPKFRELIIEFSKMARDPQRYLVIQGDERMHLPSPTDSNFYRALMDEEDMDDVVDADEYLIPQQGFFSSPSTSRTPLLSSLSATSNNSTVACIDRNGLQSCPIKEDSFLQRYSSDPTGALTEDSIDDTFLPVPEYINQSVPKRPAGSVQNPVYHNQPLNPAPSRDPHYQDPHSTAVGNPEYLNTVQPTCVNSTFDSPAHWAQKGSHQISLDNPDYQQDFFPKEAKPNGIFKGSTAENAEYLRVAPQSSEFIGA
Sequence of Ba/F3(EGFR^L858R/T790M/C797S) cells (P00533 whole entry T790M/C797S/L858R): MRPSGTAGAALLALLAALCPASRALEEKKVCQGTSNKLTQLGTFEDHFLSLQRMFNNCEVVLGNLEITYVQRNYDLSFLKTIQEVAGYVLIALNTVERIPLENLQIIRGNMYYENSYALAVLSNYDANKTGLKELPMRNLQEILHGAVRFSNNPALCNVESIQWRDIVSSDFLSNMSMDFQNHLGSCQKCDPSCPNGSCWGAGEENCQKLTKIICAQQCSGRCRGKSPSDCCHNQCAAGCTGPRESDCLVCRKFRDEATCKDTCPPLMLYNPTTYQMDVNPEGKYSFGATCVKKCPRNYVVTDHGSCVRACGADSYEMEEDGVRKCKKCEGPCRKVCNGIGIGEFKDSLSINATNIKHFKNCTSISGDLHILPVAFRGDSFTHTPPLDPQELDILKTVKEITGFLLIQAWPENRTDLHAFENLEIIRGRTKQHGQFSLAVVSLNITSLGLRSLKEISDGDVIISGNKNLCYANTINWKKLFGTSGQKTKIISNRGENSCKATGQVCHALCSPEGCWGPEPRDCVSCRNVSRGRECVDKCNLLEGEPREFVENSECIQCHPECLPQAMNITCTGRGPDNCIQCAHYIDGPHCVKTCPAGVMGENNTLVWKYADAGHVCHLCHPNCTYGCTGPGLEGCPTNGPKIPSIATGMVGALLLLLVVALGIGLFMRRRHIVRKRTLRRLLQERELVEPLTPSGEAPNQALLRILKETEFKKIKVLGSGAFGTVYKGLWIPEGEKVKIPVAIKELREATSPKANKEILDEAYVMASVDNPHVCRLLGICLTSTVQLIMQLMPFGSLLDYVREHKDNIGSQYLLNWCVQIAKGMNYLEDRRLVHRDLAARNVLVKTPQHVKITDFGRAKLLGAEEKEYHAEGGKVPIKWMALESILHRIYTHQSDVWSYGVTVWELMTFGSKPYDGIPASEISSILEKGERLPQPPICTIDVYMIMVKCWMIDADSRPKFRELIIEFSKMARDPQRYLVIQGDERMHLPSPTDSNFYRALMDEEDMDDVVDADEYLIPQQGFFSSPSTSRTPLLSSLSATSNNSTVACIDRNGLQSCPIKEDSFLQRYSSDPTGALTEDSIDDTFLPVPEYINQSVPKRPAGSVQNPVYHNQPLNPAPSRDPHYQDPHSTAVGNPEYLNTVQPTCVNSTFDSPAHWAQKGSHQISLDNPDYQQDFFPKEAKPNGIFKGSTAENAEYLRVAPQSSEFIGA

Turning to `COc1cc(N2CCC(N3CCN(C(=O)CCCCCCc4cccc5c4C(=O)N(C4CCC(=O)NC4=O)C5=O)CC3)CC2)ccc1Nc1ncc(Cl)c(Nc2ccccc2P(C)(C)=O)n1` (centres unmarked) [Compound A1, 4-(7-(4-(1-(4-((5-chloro-4-((2-(dimethylphosphoryl)phenyl)amino)pyrimidin-2-yl)amino)-3-methoxyphenyl)piperidin-4-yl)piperazin-1-yl)-7-oxoheptyl)-2-(2,6-dioxopiperidin-3-yl)isoindoline-1,3-dione], the IC50 in assay [1] was 101 to 200 nM; in assay [2], 1 to 100 nM; in assay [3] it was 101 to 200 nM. The GI50 in assay [4] was 201 to 300 nM.
Consider `COc1cc(N2CCC(N3CCN(C(=O)CCCCCCOc4cccc5c4C(=O)N(C4CCC(=O)NC4=O)C5=O)CC3)CC2)ccc1Nc1ncc(Cl)c(Nc2ccccc2P(C)(C)=O)n1` (centres unmarked) [Compound A2, 4-((7-(4-(1-(4-((5-chloro-4-((2-(dimethylphosphoryl)phenyl)amino)pyrimidin-2-yl)amino)-3-methoxyphenyl)piperidin-4-yl)piperazin-1-yl)-7-oxoheptyl)oxy)-2-(2,6-dioxopiperidin-3-yl)isoindoline-1,3-dione], for which the IC50 in assay [1] was 101 to 200 nM; in assay [2], 1 to 100 nM; in assay [3], 1 to 100 nM. In assay [4], the GI50 lay within 201 to 300 nM.
`COc1cc(N2CCC(N3CCN(CCCCCCCOc4cccc5c4C(=O)N(C4CCC(=O)NC4=O)C5=O)CC3)CC2)ccc1Nc1ncc(Cl)c(Nc2ccccc2P(C)(C)=O)n1` (centres unmarked) [Compound A10, 4-((7-(4-(1-(4-((5-chloro-4-((2-(dimethylphosphoryl)phenyl)amino)pyrimidin-2-yl)amino)-3-methoxyphenyl)piperidin-4-yl)piperazin-1-yl)heptyl)oxy)-2-(2,6-dioxopiperidin-3-yl)isoindoline-1,3-dione]: the GI50 in assay [5], in assay [7] and in assay [4] was 1 to 100 nM each time. Moreover, the IC50 in assay [1] fell in the range of 1 to 100 nM; in assay [2] it was 1 to 100 nM; in assay [3], 1 to 100 nM; in assay [6], 101 to 200 nM.
Regarding `COc1cc(N2CCC(N3CCN(CCCCCCCCCOc4cccc5c4C(=O)N(C4CCC(=O)NC4=O)C5=O)CC3)CC2)ccc1Nc1ncc(Cl)c(Nc2ccccc2P(C)(C)=O)n1` (centres unmarked) [Compound A11, 4-((9-(4-(1-(4-((5-chloro-4-((2-(dimethylphosphoryl)phenyl)amino)pyrimidin-2-yl)amino)-3-methoxyphenyl)piperidin-4-yl)piperazin-1-yl)nonyl)oxy)-2-(2,6-dioxopiperidin-3-yl)isoindoline-1,3-dione], the GI50 lay within 1 to 100 nM in assay [5], 1 to 100 nM in assay [7] and 101 to 200 nM in assay [4]. In addition, the 50% inhibitory concentration (IC50) in assay [1] fell in the range of 1 to 100 nM; in assay [2] it was 1 to 100 nM; in assay [3], 1 to 100 nM; in assay [6], 101 to 200 nM.
As for `COc1cc(N2CCC(N3CCN(CCCCC#Cc4cccc5c4CN(C4CCC(=O)NC4=O)C5=O)CC3)CC2)ccc1Nc1ncc(Cl)c(Nc2ccccc2P(C)(C)=O)n1` (centres unmarked) [Compound C116, 3-(4-(6-(4-(1-(4-((5-chloro-4-((2-(dimethylphosphoryl)phenyl)amino)pyrimidin-2-yl)amino)-3-methoxyphenyl)piperidin-4-yl)piperazin-1-yl)hex-1-yn-1-yl)-1-oxoisoindolin-2-yl)piperidine-2,6-dione], the GI50 in assay [5] and in assay [7] was 1 to 100 nM throughout. Moreover, the IC50 in assay [1] is 1 to 100 nM; in assay [2], 1 to 100 nM; in assay [3], 1 to 100 nM; in assay [6], 201 to 300 nM.
As to `COc1cc(N2CCC(N3CCN(CCCCCC#Cc4cc(F)cc5c4CN(C4CCC(=O)NC4=O)C5=O)CC3)CC2)ccc1Nc1ncc(Cl)c(Nc2ccccc2P(C)(C)=O)n1` (centres unmarked) [Compound C167, 3-(4-(7-(4-(1-(4-((5-chloro-4-((2-(dimethylphosphoryl)phenyl)amino)pyrimidin-2-yl)amino)-3-methoxyphenyl)piperidin-4-yl)piperazin-1-yl)hept-1-yn-1-yl)-6-fluoro-1-oxoisoindolin-2-yl)piperidine-2,6-dione], the GI50 in assay [5] and in assay [4] was 1 to 100 nM throughout. In addition, the IC50 in assay [1] was 1 to 100 nM; in assay [2] it was 1 to 100 nM; in assay [3], 1 to 100 nM; in assay [6] it was 201 to 300 nM.
Turning to `COc1cc(N2CCC(N3CCN(CCCCCCC#Cc4cccc5c4CN(C4CCC(=O)NC4=O)C5=O)CC3)CC2)ccc1Nc1ncc(Cl)c(Nc2ccccc2P(C)(C)=O)n1` (centres unmarked) [Compound C177, 3-(4-(8-(4-(1-(4-((5-chloro-4-((2-(dimethylphosphoryl)phenyl)amino)pyrimidin-2-yl)amino)-3-methoxyphenyl)piperidin-4-yl)piperazin-1-yl)oct-1-yn-1-yl)-1-oxoisoindolin-2-yl)piperidine-2,6-dione], the GI50 in assay [5] and in assay [7] was 1 to 100 nM throughout. Further, the IC50 in assay [1] was in the range of 1 to 100 nM; in assay [2], 1 to 100 nM; in assay [3], 1 to 100 nM; in assay [6], 201 to 300 nM.
Take `COc1cc(N2CCC(N3CCN(CCCCCCCC#Cc4cccc5c4CN(C4CCC(=O)NC4=O)C5=O)CC3)CC2)ccc1Nc1ncc(Cl)c(Nc2ccccc2P(C)(C)=O)n1` (centres unmarked) [Compound C178, 3-(4-(9-(4-(1-(4-((5-chloro-4-((2-(dimethylphosphoryl)phenyl)amino)pyrimidin-2-yl)amino)-3-methoxyphenyl)piperidin-4-yl)piperazin-1-yl)non-1-yn-1-yl)-1-oxoisoindolin-2-yl)piperidine-2,6-dione]: the GI50 in assay [5] and in assay [7] was 1 to 100 nM each time. For the same molecule, the IC50 is 1 to 100 nM in assay [1], 1 to 100 nM in assay [2], 1 to 100 nM in assay [3] and 201 to 300 nM in assay [6].
As for `COc1cc(N2CCC3(CCN(CCCCC#Cc4cccc5c4CN(C4CCC(=O)NC4=O)C5=O)CC3)CC2)c(C)cc1Nc1ncc(Br)c(Nc2ccc3nccnc3c2P(C)(C)=O)n1` (centres unmarked) [Compound C187, 3-(4-(6-(9-(4-((5-bromo-4-((5-(dimethylphosphoryl)quinoxalin-6-yl)amino)pyrimidin-2-yl)amino)-5-methoxy-2-methylphenyl)-3,9-diazaspiro[5.5]undecan-3-yl)hex-1-yn-1-yl)-1-oxoisoindolin-2-yl)piperidine-2,6-dione], the GI50 in assay [5] and in assay [7] was 1 to 100 nM each time. Also, the IC50 in assay [1] and in assay [2] was 1 to 100 nM each time.
Regarding `COc1cc(N2CCC(N3CCN(CCCCC#Cc4ccc5c(c4)CN(C4CCC(=O)NC4=O)C5=O)CC3)CC2)ccc1Nc1ncc(Cl)c(Nc2ccccc2P(C)(C)=O)n1` (centres unmarked) [Compound C192, 3-(5-(6-(4-(1-(4-((5-chloro-4-((2-(dimethylphosphoryl)phenyl)amino)pyrimidin-2-yl)amino)-3-methoxyphenyl)piperidin-4-yl)piperazin-1-yl)hex-1-yn-1-yl)-1-oxoisoindolin-2-yl)piperidine-2,6-dione], the GI50 in assay [5] and in assay [7] was 1 to 100 nM each time. The half-maximal inhibitory concentration (IC50) in assay [1] fell in the range of 1 to 100 nM; in assay [2], 1 to 100 nM; in assay [3], 1 to 100 nM; in assay [6], 201 to 300 nM.

As a reminder, the IC50 is the midpoint of a concentration-inhibition curve.

The record behind these values is patent US20220306659A1, “COMPOUND INHIBITING AND INDUCING DEGRADATION OF EGFR AND ALK” (BEIJING TIDE PHARMACEUTICAL CO., LTD., priority 2019, published 2022).
